# Source: BigSolDB 2.1
smiles,measurement,setting,value
O=c1c2ccccc2nc2n1CCc1c-2[nH]c2ccccc12,solubility (mole fraction),"in acetone, 283.2 K",0.000735
same,solubility (mole fraction),"in acetone, 293.2 K",0.000972
same,solubility (mole fraction),"in acetone, 303.2 K",0.00129
same,solubility (mole fraction),"in acetone, 313.2 K",0.00149
same,solubility (mole fraction),"in acetone, 323.2 K",0.00196
same,solubility (mole fraction),"in chloroform, 283.2 K",0.000287
same,solubility (mole fraction),"in chloroform, 293.2 K",0.000511
same,solubility (mole fraction),"in chloroform, 303.2 K",0.000922
same,solubility (mole fraction),"in chloroform, 313.2 K",0.00211
same,solubility (mole fraction),"in chloroform, 323.2 K",0.00485
same,solubility (mole fraction),"in cyclohexane, 283.2 K",6.24e-06
same,solubility (mole fraction),"in cyclohexane, 293.2 K",1.14e-05
same,solubility (mole fraction),"in cyclohexane, 303.2 K",1.73e-05
same,solubility (mole fraction),"in cyclohexane, 313.2 K",2.52e-05
same,solubility (mole fraction),"in cyclohexane, 323.2 K",3.78e-05
same,solubility (mole fraction),"in dichloromethane, 283.2 K",0.00142
same,solubility (mole fraction),"in dichloromethane, 288.2 K",0.00162
same,solubility (mole fraction),"in dichloromethane, 293.2 K",0.00182
same,solubility (mole fraction),"in dichloromethane, 298.2 K",0.00196
same,solubility (mole fraction),"in dichloromethane, 303.2 K",0.00224
same,solubility (mole fraction),"in diethyl ether, 283.2 K",0.00024
same,solubility (mole fraction),"in diethyl ether, 288.2 K",0.000273
same,solubility (mole fraction),"in diethyl ether, 293.2 K",0.000313
same,solubility (mole fraction),"in diethyl ether, 298.2 K",0.000396
same,solubility (mole fraction),"in diethyl ether, 303.2 K",0.000454
same,solubility (mole fraction),"in ethanol, 283.2 K",9.75e-05
same,solubility (mole fraction),"in ethanol, 293.2 K",0.000143
same,solubility (mole fraction),"in ethanol, 303.2 K",0.000203
same,solubility (mole fraction),"in ethanol, 313.2 K",0.000279
same,solubility (mole fraction),"in ethanol, 323.2 K",0.000394
same,solubility (mole fraction),"in ethyl acetate, 283.2 K",0.00104
same,solubility (mole fraction),"in ethyl acetate, 293.2 K",0.00123
same,solubility (mole fraction),"in ethyl acetate, 303.2 K",0.00153
same,solubility (mole fraction),"in ethyl acetate, 313.2 K",0.00195
same,solubility (mole fraction),"in ethyl acetate, 323.2 K",0.00255
same,solubility (mole fraction),"in isopropanol, 283.2 K",7.94e-05
same,solubility (mole fraction),"in isopropanol, 293.2 K",0.000127
same,solubility (mole fraction),"in isopropanol, 303.2 K",0.000192
same,solubility (mole fraction),"in isopropanol, 313.2 K",0.000292
same,solubility (mole fraction),"in isopropanol, 323.2 K",0.000459
same,solubility (mole fraction),"in methanol, 283.2 K",6.61e-05
same,solubility (mole fraction),"in methanol, 293.2 K",8.18e-05
same,solubility (mole fraction),"in methanol, 303.2 K",0.000117
same,solubility (mole fraction),"in methanol, 313.2 K",0.000161
same,solubility (mole fraction),"in methanol, 323.2 K",0.000229
same,solubility (mole fraction),"in n-butanol, 283.2 K",0.000186
same,solubility (mole fraction),"in n-butanol, 293.2 K",0.000266
same,solubility (mole fraction),"in n-butanol, 303.2 K",0.000369
same,solubility (mole fraction),"in n-butanol, 313.2 K",0.000577
same,solubility (mole fraction),"in n-butanol, 323.2 K",0.000955
same,solubility (mole fraction),"in n-hexane, 283.2 K",6.17e-06
same,solubility (mole fraction),"in n-hexane, 293.2 K",1.21e-05
same,solubility (mole fraction),"in n-hexane, 303.2 K",1.62e-05
same,solubility (mole fraction),"in n-hexane, 313.2 K",2.63e-05
same,solubility (mole fraction),"in n-hexane, 323.2 K",3.97e-05
same,solubility (mole fraction),"in n-pentane, 283.2 K",4.31e-06
same,solubility (mole fraction),"in n-pentane, 288.2 K",6.89e-06
same,solubility (mole fraction),"in n-pentane, 293.2 K",9.67e-06
same,solubility (mole fraction),"in n-pentane, 298.2 K",1.53e-05
same,solubility (mole fraction),"in n-pentane, 303.2 K",2.47e-05
